{"source": "paper PMC5352362", "about": "“Molecular and functional evaluation of a novel HIF inhibitor, benzopyranyl 1,2,3-triazole compound” (Oncotarget, 2016)", "key": {"[1]": {"system": "HIF-1α target genes (VEGF, ALDOC, CA9, GLUT1, CXCR4)", "test": "Semiquantitative RT-PCR of HIF-1α target genes in A549 cells", "type": "cell-based, human", "settings": "1–100 nM, 16 h, hypoxia", "description": "As HIF-1α regulates transcription of its target genes, which are involved in angiogenesis, glucose metabolism, and metastasis in tumor progression, we determined the effects of Compound 12 on HIF-1 target gene expression at the mRNA level by semiquantitative RT-PCR. […] Thus, we checked secreted VEGF protein levels in culture media via ELISA.\nFigure 5 Compound 12 suppressed HIF-1α target gene expression, and confirmation of in vitro results via determination of effects on angiogenesis in vivo (A) A549 cells were treated with Compound 12 (at concentrations of 0 nM, 1 nM, 10 nM, and 100 nM) for 16 h. The mRNA levels of HIF-1α target genes were determined by semiquantitative RT-PCR. β-actin was used as an internal control. D. DMSO vehicle control. N, normoxia; H, hypoxia. […] Media supernatant was collected, and secreted VEGF was determined by ELISA after removal of cellular debris. […] Cells that migrated through the membrane (8 μm pore size) were stained with hematoxylin and eosin, pictured as shown in upper panel, and counted (graph). *P < 0.05, **P < 0.01 versus VEGF-treated control. […] (F) Compound 12 (0.1 μg and 1 μg dosages) and retinoic acid (RA, positive control) were applied to the ED 4.5 CAM for two days, neovessel formation from the large vessels was observed, and percentages of positive angiogenic eggs (from total eggs tested) were calculated. […]"}, "[2]": {"system": "angiogenesis (hemoglobin content of Matrigel plug)", "test": "Matrigel plug assay in C57BL/6J mice", "type": "in vivo, mouse", "settings": "Compound 12 100 nM, gefitinib 5 μM in Matrigel, 10 days", "procedure": "HIF-1α is synthesized by growth factor signaling pathways, such as those of EGFR [30] [31]. Inhibition of HIF-1α in its pathways of synthesis, as well as in its pathway of degradation, would seem to make for a more efficient anti-cancer/anti-angiogenesis treatment. To confirm this, we performed a tumor allogaft experiment using Lewis lung carcinoma (LLC) cells. 1 × 10^6 LLC cells were inoculated into the mouse flank subcutaneously (s.c.), and treatment with Compound 12 (5 mg/kg) and/or gefitinib (an EGFR inhibitor, 50 mg/kg), via intraperitoneal (i.p.) administration, was performed every other day for 20 days. […] To confirm the effect of Compound 12 on angiogenesis, we analyzed angiogenesis using the Matrigel plug assay. […]\nFigure 6 Compound 12 suppressed allogaft tumor growth and enhanced the effects of a chemotherapeutic agent (A, B) Lewis lung carcinoma cells were inoculated into flanks of C57BL/6J mice (Day 0). […] Tumor size (A) and tumor weight (B) were measured three times a week and on the final day, respectively. […] The content of hemoglobin was quantified and graphed. (D) Tumor tissue sections (10 μm) indicated were stained with H&E and immunostained with anti-CD31 antibody to detect microvessel density; CD31+ cell percentages were then calculated and graphed. […] (F) Images and quantitative comparisons (graph) for Ki67+ proliferating cells in tumor center regions are shown. […]"}}}
{"smiles": "COc1ccc(-c2cn(CC3(C)C=Cc4cc([N+](=O)[O-])ccc4O3)nn2)cc1", "note": "(centres unmarked) [Compound 12, 4-(4-methoxyphenyl)-1-((2-methyl-6-nitro-2H-chromen-2-yl)methyl)-1H-1,2,3-triazole]", "values": [{"measurement": "mRNA levels of VEGF, ALDOC, CA9, GLUT1 and CXCR4", "setting": "[1]", "result": "suppressed the mRNA levels"}, {"measurement": "anti-angiogenic activity, Matrigel plug (hemoglobin content)", "setting": "[2]", "result": "anti-angiogenic activity was increased"}]}
